# Reference: patent publication US9581729B2, “Compound, photosensitive resin composition comprising the same and color filter” (Samsung SDI Co., Ltd., priority 2015, dated 2017)
# Experiment: Solubility in dilution solvent (PGMEA)
# Format: physicochemical
# Settings: 25° C., 100 rpm, 1 hour
# Description: A dilution solvent (PGMEA) is respectively added to 0.5 g of each compound according to Synthesis Examples 6 to 13 and Comparative Synthesis Examples 1 and 2, and each solution is agitated with a mixrotor (Mixrotor VMR-5, Iuchi Seieido Co., Ltd.) at 25° C. and 100 rpm for 1 hour, and solubility result of each compound is provided in Table 1. Solubility Evaluation Reference Dissolution of a compound (a solute) in an amount of greater than or equal to 10 wt % based on the total weight of the dilution solvent: ∘ Dissolution of a compound (a solute) in an amount ranging from greater than or equal 5 wt % and less than 10 wt % based on the total weight of the dilution solvent: Δ Dissolution of a compound (a solute) in an amount ranging from less than 5 wt % based on the total weight of the dilution solvent: X
row,Structure (SMILES),Solubility
1,Clc1c(Cl)c2c(c(Cl)c1Oc1ccccc1)/C1=N/c3c4c(Cl)c(Cl)c(Oc5ccccc5)c(Cl)c4c4[n]3[Zn][n]3/c(c5c(Cl)c(Cl)c(Oc6ccccc6)c(Cl)c5/c3=N/C2=N1)=N\C1=NC(=N\4)/c2c(Cl)c(Oc3ccccc3)c(Cl)c(Cl)c21 [Comparative Synthesis Example 1],Δ (Dissolution of a compound (a solute) in an amount ranging from greater than or equal 5 wt % and less than 10 wt % based on the total weight of the dilution solvent)
2,CCCCCOc1c(Cl)c(Cl)c2c(c1Cl)C1=NC/2=N\c2c3c(Cl)c(Cl)c(OCCCCC)c(Cl)c3c3[n]2[Zn][n]2/c(c4c(Cl)c(Cl)c(OCCCCC)c(Cl)c4/c2=N/1)=N\C1=NC(=N\3)/c2c(Cl)c(Cl)c(OCCCCC)c(Cl)c21 [Comparative Synthesis Example 2],Δ (Dissolution of a compound (a solute) in an amount ranging from greater than or equal 5 wt % and less than 10 wt % based on the total weight of the dilution solvent)
